The values below are quoted from earlier work in patent US6514941B1, “Method of preparing a casein hydrolysate enriched in anti-hypertensive peptides” (Campina Melkunie B.V., priority 1999, dated 2003).

For this data set, the system named is SHRSP. As to conditions: dose that is not hypotensive.

As for `C[C@H](CS)C(=O)N1CCC[C@H]1C(=O)O` [captopril], the onset of stroke result is recorded as “inhibits the onset of stroke”.
